# Reference: ChEMBL document CHEMBL1135381, “Synthesis and structure-activity relationship of 2-(aminoalkyl)-2,3,3a,8-tetrahydrodibenzo[c,f]isoxazolo[2,3-a]azepine derivatives: a novel series of 5-HT(2A/2C) receptor antagonists. Part 2” (Bioorg Med Chem Lett, 2002)
# Biological target: T1, 5-hydroxytryptamine receptor 1A (Homo sapiens, UniProt P08908)
# T1 sequence (P08908 whole entry): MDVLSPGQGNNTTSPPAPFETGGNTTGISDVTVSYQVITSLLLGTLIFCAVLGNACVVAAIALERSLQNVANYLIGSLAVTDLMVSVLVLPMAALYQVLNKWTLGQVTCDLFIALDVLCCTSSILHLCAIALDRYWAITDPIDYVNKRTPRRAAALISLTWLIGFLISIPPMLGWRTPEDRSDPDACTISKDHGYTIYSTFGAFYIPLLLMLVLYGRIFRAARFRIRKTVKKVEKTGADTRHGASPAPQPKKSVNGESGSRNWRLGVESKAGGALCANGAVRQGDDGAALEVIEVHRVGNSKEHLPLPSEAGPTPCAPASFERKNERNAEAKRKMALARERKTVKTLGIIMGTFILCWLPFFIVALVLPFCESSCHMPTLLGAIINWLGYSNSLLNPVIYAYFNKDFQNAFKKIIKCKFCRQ
# Test: Binding affinity for human cloned 5-hydroxytryptamine 1A receptor
# Conditions: not given
row,IC50 [µM],Compound
1,> 1,Cc1ccc2c(c1)N1OC(CN(C)C)CC1c1ccccc1C2 (stereo unspecified)
2,> 1,CN(C)CC1CC2c3cc(F)ccc3Cc3ccc(F)cc3N2O1 (stereo unspecified)

# Biological target: Histamine H1 receptor (Homo sapiens, UniProt P35367)
# Test: Binding affinity at human cloned Histamine H1 receptor expressed in CHO cells by [3H]pyrilamine displacement.
# Type: cell-based
# Conditions: not given
# Histamine H1 receptor, sequence (P35367 whole entry): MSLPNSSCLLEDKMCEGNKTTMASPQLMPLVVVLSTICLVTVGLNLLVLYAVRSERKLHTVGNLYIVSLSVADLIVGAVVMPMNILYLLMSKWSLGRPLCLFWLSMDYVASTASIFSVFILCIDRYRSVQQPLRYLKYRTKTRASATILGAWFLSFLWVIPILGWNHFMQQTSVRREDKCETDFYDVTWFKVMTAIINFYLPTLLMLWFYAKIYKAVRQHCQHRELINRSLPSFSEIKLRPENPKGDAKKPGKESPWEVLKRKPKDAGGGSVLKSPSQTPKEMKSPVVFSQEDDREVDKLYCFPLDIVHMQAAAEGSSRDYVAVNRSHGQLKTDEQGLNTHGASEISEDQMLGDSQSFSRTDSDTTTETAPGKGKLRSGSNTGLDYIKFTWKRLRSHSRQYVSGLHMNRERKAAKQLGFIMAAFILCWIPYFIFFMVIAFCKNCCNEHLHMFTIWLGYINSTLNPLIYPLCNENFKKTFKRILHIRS
row,Compound,IC50 [µM]
1,CN(C)CC1CC2c3c(F)cccc3Cc3ccccc3N2O1 (stereo unspecified),> 1
2,CN(C)CC1CC2c3cccc(Cl)c3Cc3ccccc3N2O1 (stereo unspecified),> 1
3,CN(C)CC1CC2c3cc(C(F)(F)F)ccc3Cc3ccccc3N2O1 (stereo unspecified),> 1

# System: Rattus norvegicus
# Test: In vivo activity in mCPP challenge test were performed in male Wistar rats by subcutaneous administration
# Type: functional
# Conditions: sc
row,Compound,ED50 [mg/kg]
1,CN(C)CC1CC2c3c(F)cccc3Cc3ccccc3N2O1 (stereo unspecified),> 2.5
2,CN(C)CC1CC2c3ccc(Cl)cc3Cc3ccccc3N2O1 (stereo unspecified),> 2.5
3,CN(C)CC1CC2c3cc(F)ccc3Cc3ccccc3N2O1 (stereo unspecified),> 2.5
4,CN(C)CC1CC2c3cc(C(F)(F)F)ccc3Cc3ccccc3N2O1 (stereo unspecified),2.5
5,CN(C)CC1CC2c3ccccc3Cc3ccc(-c4ccccc4)cc3N2O1 (stereo unspecified),> 2.5
6,CN(C)CC1CC2c3ccccc3Cc3ccccc3N2O1 (stereo unspecified),0.04
7,CN(C)CC1CC2c3cccc(F)c3Cc3ccccc3N2O1 (stereo unspecified),2.5
8,CN(C)CC1CC2c3ccccc3Cc3ccc(Cl)cc3N2O1 (stereo unspecified),0.16
9,Cc1ccc2c(c1)N1OC(CN(C)C)CC1c1ccccc1C2 (stereo unspecified),0.16
10,CN(C)CC1CC2c3cc(F)ccc3Cc3ccc(F)cc3N2O1 (stereo unspecified),0.04

# Biological target: T2, D(4) dopamine receptor (Homo sapiens, UniProt P21917)
# T2 sequence (P21917 whole entry): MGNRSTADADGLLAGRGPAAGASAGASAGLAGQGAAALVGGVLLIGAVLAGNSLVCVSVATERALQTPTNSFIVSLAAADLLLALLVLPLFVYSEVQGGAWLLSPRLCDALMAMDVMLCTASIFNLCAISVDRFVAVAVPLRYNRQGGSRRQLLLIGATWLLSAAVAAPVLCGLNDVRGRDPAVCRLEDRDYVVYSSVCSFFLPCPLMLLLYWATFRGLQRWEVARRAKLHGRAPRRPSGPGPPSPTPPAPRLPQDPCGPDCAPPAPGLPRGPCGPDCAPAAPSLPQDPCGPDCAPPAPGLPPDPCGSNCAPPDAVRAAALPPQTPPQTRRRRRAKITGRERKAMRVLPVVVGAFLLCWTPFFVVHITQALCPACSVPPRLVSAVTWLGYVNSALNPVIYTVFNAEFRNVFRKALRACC
# Test: Binding affinity for human cloned Dopamine receptor D4
# Conditions: not given
row,IC50 [µM],Compound
1,> 1,Cc1ccc2c(c1)N1OC(CN(C)C)CC1c1ccccc1C2 (stereo unspecified)
2,> 1,CN(C)CC1CC2c3cc(F)ccc3Cc3ccc(F)cc3N2O1 (stereo unspecified)

# Biological target: 5-hydroxytryptamine receptor 1D (Homo sapiens, UniProt P28221)
# Test: Binding affinity for human cloned 5-hydroxytryptamine 1D receptor
# Conditions: not given
# 5-hydroxytryptamine receptor 1D, sequence (P28221 whole entry): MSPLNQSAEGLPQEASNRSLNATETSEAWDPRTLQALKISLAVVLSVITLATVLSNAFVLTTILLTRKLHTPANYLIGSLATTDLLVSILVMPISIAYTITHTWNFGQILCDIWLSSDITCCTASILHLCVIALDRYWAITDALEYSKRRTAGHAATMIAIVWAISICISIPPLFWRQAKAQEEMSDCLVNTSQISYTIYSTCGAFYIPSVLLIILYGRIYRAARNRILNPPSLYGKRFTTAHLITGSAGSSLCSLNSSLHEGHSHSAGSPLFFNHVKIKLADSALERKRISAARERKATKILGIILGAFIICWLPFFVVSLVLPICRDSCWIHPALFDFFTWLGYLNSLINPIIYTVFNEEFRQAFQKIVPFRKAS
row,IC50 [µM],Compound
1,> 1,Cc1ccc2c(c1)N1OC(CN(C)C)CC1c1ccccc1C2 (stereo unspecified)
2,> 1,CN(C)CC1CC2c3cc(F)ccc3Cc3ccc(F)cc3N2O1 (stereo unspecified)

# Biological target: 5-hydroxytryptamine receptor 2A (Homo sapiens, UniProt P28223)
# Test: Binding affinity at human cloned 5-hydroxytryptamine 2A receptor expressed in L929 cells by [125I]R91150 displacement.
# Type: cell-based
# Conditions: not given
# 5-hydroxytryptamine receptor 2A, sequence (P28223 whole entry): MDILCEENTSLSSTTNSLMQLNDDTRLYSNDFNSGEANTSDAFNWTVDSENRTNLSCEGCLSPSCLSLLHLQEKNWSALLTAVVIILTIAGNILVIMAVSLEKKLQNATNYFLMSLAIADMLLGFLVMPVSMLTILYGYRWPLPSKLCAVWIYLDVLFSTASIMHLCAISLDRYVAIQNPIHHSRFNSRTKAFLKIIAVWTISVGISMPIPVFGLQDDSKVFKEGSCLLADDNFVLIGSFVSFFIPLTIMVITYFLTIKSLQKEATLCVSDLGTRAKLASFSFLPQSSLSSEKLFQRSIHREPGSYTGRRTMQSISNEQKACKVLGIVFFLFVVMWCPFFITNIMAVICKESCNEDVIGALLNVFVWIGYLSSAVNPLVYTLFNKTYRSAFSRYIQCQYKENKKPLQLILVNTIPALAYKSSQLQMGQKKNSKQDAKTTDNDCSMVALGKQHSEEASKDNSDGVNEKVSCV
row,Compound,IC50 [µM]
1,CN(C)CC1CC2c3c(F)cccc3Cc3ccccc3N2O1 (stereo unspecified),> 1
2,CN(C)CC1CC2c3cccc(Cl)c3Cc3ccccc3N2O1 (stereo unspecified),> 1
3,CN(C)CC1CC2c3cc(C(F)(F)F)ccc3Cc3ccccc3N2O1 (stereo unspecified),> 1
4,CN(C)CC1CC2c3cccc(F)c3Cc3ccccc3N2O1 (stereo unspecified),0.0316
5,CN(C)CC1CC2c3cc(F)ccc3Cc3ccc(F)cc3N2O1 (stereo unspecified),0.0107

# Biological target: Serotonin 3 (5-HT3) receptor
# Test: Binding affinity for human cloned 5-hydroxytryptamine 3 receptor
# Type: protein-complex assay
# Conditions: not given
row,pIC50,Compound
1,6.32,CN(C)CC1CC2c3ccccc3Cc3ccc(Cl)cc3N2O1 (stereo unspecified)
2,< 6,Cc1ccc2c(c1)N1OC(CN(C)C)CC1c1ccccc1C2 (stereo unspecified)
3,< 6,CN(C)CC1CC2c3cc(F)ccc3Cc3ccc(F)cc3N2O1 (stereo unspecified)

# Biological target: D(2) dopamine receptor (Rattus norvegicus, UniProt P61169)
# Test: Binding affinity for rat Dopamine receptor D2
# Conditions: not given
# D(2) dopamine receptor, sequence (P61169 whole entry): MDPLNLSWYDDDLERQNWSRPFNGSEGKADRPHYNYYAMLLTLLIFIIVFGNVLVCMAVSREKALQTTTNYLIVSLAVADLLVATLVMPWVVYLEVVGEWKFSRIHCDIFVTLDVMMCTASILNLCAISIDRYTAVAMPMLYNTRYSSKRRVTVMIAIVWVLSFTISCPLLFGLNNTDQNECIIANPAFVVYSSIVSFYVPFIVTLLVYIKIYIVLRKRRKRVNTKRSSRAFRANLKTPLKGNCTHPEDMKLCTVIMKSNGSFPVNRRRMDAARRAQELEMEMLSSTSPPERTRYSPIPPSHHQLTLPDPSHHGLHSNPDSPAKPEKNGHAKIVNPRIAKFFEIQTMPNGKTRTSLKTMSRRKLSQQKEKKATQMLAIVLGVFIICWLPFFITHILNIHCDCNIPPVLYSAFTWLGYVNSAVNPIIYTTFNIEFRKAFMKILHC
row,IC50 [µM],Compound
1,> 1,Cc1ccc2c(c1)N1OC(CN(C)C)CC1c1ccccc1C2 (stereo unspecified)

# Biological target: T3, 5-hydroxytryptamine receptor 2C (Homo sapiens, UniProt P28335)
# T3 sequence (P28335 whole entry): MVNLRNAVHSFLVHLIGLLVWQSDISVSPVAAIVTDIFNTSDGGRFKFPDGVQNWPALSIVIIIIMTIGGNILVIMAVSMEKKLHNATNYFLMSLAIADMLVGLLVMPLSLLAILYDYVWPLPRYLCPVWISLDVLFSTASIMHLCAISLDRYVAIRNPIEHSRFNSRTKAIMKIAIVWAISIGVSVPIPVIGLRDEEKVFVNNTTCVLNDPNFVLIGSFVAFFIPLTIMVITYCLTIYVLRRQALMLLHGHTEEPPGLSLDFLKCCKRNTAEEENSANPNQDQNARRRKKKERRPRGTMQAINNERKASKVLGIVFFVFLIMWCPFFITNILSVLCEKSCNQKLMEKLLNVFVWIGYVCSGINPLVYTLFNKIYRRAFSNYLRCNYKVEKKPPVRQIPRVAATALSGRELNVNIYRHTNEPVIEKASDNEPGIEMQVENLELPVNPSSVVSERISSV
# Test: Binding affinity at human cloned 5-hydroxytryptamine 2C receptor expressed in CHO cells by [3H]mesulergine displacement.
# Type: cell-based
# Conditions: not given
row,Compound,IC50 [µM]
1,CN(C)CC1CC2c3c(F)cccc3Cc3ccccc3N2O1 (stereo unspecified),> 1
2,CN(C)CC1CC2c3cccc(Cl)c3Cc3ccccc3N2O1 (stereo unspecified),> 1
3,CN(C)CC1CC2c3cc(C(F)(F)F)ccc3Cc3ccccc3N2O1 (stereo unspecified),> 1

# Biological target: D(3) dopamine receptor (Homo sapiens, UniProt P35462)
# Test: Binding affinity for human cloned Dopamine receptor D3
# Conditions: not given
# D(3) dopamine receptor, sequence (P35462 whole entry): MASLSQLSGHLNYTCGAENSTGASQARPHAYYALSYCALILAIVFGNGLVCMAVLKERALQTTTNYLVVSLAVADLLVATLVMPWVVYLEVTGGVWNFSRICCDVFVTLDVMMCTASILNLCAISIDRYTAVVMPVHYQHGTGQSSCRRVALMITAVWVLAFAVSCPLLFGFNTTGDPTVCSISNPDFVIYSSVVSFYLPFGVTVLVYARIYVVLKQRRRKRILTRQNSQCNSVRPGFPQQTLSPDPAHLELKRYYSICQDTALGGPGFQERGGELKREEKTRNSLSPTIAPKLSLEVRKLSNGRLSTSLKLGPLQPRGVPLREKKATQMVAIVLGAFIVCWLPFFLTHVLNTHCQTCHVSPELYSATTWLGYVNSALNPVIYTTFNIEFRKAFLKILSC
row,IC50 [µM],Compound
1,> 1,Cc1ccc2c(c1)N1OC(CN(C)C)CC1c1ccccc1C2 (stereo unspecified)
2,> 1,CN(C)CC1CC2c3cc(F)ccc3Cc3ccc(F)cc3N2O1 (stereo unspecified)

# Biological target: T4, Alpha-2A adrenergic receptor (Homo sapiens, UniProt P08913)
# T4 sequence (P08913 whole entry): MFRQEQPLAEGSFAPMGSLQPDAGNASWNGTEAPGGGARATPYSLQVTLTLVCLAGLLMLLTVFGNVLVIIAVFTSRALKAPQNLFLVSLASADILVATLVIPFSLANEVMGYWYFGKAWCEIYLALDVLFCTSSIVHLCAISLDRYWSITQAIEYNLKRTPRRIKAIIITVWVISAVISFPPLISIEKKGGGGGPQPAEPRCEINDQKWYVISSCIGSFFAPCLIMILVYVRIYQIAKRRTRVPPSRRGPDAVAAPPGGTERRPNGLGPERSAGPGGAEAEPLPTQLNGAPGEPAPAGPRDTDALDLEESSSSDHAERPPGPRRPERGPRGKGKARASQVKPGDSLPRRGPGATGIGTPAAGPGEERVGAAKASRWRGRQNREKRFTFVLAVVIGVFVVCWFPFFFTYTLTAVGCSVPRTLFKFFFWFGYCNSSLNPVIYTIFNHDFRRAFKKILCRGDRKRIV
# Test: Binding affinity for human cloned Alpha-2A adrenergic receptor
# Conditions: not given
row,IC50 [µM],Compound
1,> 1,Cc1ccc2c(c1)N1OC(CN(C)C)CC1c1ccccc1C2 (stereo unspecified)
2,> 1,CN(C)CC1CC2c3cc(F)ccc3Cc3ccc(F)cc3N2O1 (stereo unspecified)

# Biological target: T5, Alpha-2C adrenergic receptor (Homo sapiens, UniProt P18825)
# T5 sequence (P18825 whole entry): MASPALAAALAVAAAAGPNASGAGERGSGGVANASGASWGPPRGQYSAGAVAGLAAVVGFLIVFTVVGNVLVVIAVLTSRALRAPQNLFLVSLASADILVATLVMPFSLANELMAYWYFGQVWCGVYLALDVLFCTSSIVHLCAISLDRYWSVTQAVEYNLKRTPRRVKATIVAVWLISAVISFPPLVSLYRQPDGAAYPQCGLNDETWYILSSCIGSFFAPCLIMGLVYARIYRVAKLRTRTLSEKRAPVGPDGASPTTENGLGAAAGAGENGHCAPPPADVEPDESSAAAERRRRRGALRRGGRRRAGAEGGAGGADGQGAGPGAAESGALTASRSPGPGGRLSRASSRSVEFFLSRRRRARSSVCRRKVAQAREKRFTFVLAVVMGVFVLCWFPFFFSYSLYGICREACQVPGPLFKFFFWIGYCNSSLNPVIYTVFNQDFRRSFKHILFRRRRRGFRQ
# Test: Binding affinity for human cloned Alpha-2C adrenergic receptor
# Conditions: not given
row,IC50 [µM],Compound
1,> 1,Cc1ccc2c(c1)N1OC(CN(C)C)CC1c1ccccc1C2 (stereo unspecified)
2,> 1,CN(C)CC1CC2c3cc(F)ccc3Cc3ccc(F)cc3N2O1 (stereo unspecified)

# Biological target: T6, 5-hydroxytryptamine receptor 2C (Rattus norvegicus) (UniProt P08909)
# T6 sequence (whole entry): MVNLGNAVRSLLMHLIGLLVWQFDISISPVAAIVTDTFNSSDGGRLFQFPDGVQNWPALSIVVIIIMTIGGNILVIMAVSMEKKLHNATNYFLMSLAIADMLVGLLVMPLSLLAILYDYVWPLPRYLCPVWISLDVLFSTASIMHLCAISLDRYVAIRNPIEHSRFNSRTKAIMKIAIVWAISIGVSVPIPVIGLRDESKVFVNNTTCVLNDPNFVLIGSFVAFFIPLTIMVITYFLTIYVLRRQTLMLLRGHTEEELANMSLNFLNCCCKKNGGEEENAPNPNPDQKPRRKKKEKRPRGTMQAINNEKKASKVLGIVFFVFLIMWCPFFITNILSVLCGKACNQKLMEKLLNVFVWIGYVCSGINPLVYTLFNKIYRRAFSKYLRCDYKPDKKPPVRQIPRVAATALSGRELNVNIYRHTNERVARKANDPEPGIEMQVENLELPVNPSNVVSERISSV
# Test: In vivo activity in rat mCPP challenge test following p.o. administration.
# Type: functional, organism-based
# Conditions: not given
row,Compound,ED50 [mg/kg]
1,CN(C)CC1CC2c3cccc(Cl)c3Cc3ccccc3N2O1 (stereo unspecified),> 2.5
2,CN(C)CC1CC2c3cc(C(F)(F)F)ccc3Cc3ccccc3N2O1 (stereo unspecified),> 2.5
3,CN(C)CC1CC2c3cccc(F)c3Cc3ccccc3N2O1 (stereo unspecified),2.5
4,CN(C)CC1CC2c3cc(F)ccc3Cc3ccc(F)cc3N2O1 (stereo unspecified),0.63

# Next, values leading:
row,ED50 [mg/kg],Compound
1,> 2.5,CN(C)CC1CC2c3cc(F)ccc3Cc3ccccc3N2O1 (stereo unspecified)
2,> 2.5,CN(C)CC1CC2c3ccccc3Cc3ccc(-c4ccccc4)cc3N2O1 (stereo unspecified)
3,0.63,CN(C)CC1CC2c3ccccc3Cc3ccccc3N2O1 (stereo unspecified)
4,0.63,CN(C)CC1CC2c3ccccc3Cc3ccc(Cl)cc3N2O1 (stereo unspecified)
5,2.5,Cc1ccc2c(c1)N1OC(CN(C)C)CC1c1ccccc1C2 (stereo unspecified)
